The values below come from article PMC10208570, “Peptidomimetic antibiotics disrupt the lipopolysaccharide transport bridge of drug-resistant Enterobacteriaceae” (Science Advances, 2023).

Values after ≈ are worked out from the molar mass of the structure shown. Where a SMILES comes first, the peptide text is derived from it. Bridges are numbered along the chain shown (N, C = ends). [ ]: non-standard residue; d: D form. dHyp = O=C(O)[C@H]1C[C@H](O)CN1; dPen = CC(C)(S)[C@@H](N)C(=O)O; Pen = CC(C)(S)[C@H](N)C(=O)O; dDab = NCC[C@@H](N)C(=O)O; Dab = NCC[C@H](N)C(=O)O

The subject of series [1] is K. pneumoniae 968733 (CST-R). In words: MIC assay (CLSI). Format: cell-based, Klebsiella pneumoniae. The procedure: (§1) MIC assays [Clinical and Laboratory Standards Institute (CLSI) methodology] and serial passage studies were performed as described by Luther et al. ([6]). […] Resistant mutants were isolated, and their MIC values were determined and sent to Microbes NG (Birmingham, United Kingdom) for whole-genome sequencing and bioinformatic analysis.

Series [2] concerns K. pneumoniae ATCC 43816 LptA Q62L mutant. In words: microbe, parasite or virus in culture. On the procedure:
as §1

The test system of series [3] is K. pneumoniae ATCC 43816 (parent / WT). The series is described as follows: microbe, parasite or virus in culture. As to conditions: for MIC K. pneumoniae ATCC 43816 Parent: CLSI method, parent strain. The procedure: as §1
Series [4] relates to E. coli ATCC 25922 (parent / WT). The series is described as follows: microbe, parasite or virus in culture. As to conditions: for MIC E. coli ATCC 25922 Parent: CLSI method, parent strain. On the procedure:
as §1

Series [5] relates to E. coli ATCC 25922 LptA Q62L mutant. The series is described as follows: microbe, parasite or virus in culture. As to conditions: for MIC E. coli ATCC 25922 Q62L mutant: CLSI method, clone harboring LptA Q62L. On the procedure: as §1
The subject of series [6] is human red blood cells. In words: Haemolysis. Format: cell-based. As to conditions: PBS-washed human red blood cells; 1 h at 200 mg/liter, 37°C; OD 540 nm; versus 100% lysis control 2.5% Triton X-100; biological replicates. The procedure:
To test their hemolytic potential, compounds were incubated in the presence of phosphate-buffered saline (PBS)–washed human red blood cells. After 1-hour incubation at 200 mg/liter and 37°C, the samples were centrifuged (3220g), the supernatants were diluted in Dulbecco’s PBS, and optical density at 540 nm was determined. The hemolysis induced by the compound was calculated versus a 100% lysis control prepared with 2.5% Triton X-100 (table S4A).

Series [7] can be described thus: in vitro. The series is classed as cell-based. The note with it: human. The procedure:
The cytotoxicity of compounds was determined by determining the number of viable cells using the Sigma Cell Counting Kit-8 (WST-8). HeLa cells were incubated at 37°C and 5% CO2 for 24 hours, after which the medium was replaced with fresh medium containing dilutions of compounds. […]

Series [8] addresses T1, LptAmQ62L (Escherichia coli, UniProt P0ADV1, Q62L).
T1 construct: His6-GB1 (N, cleaved yes); made in house; host or cells: E. coli BL21 (DE3)
The series is described as follows: biochemical. Format: binding, E. coli. The procedure: (§2) Protein stocks were purified and concentrated in buffer 1 [50 mM Na-Pi (pH 7) and 150 mM NaCl] and, if necessary, diluted to desired concentrations using buffer 2 [50 mM Na-Pi (pH 7), 150 mM NaCl, and 0.05% Tween 20]. Peptide stocks and fluorescently labeled peptide stocks were made in buffer 2. Every serial dilution consisted of 24 wells, the first well with the highest concentrate and the last well (well 24) with the lowest. First, 50 μl of buffer 2 was added to the wells 2 to 24 of each serial dilution. Then, 100 μl of concentrated unlabeled peptide/protein in their respective buffers was added to the first well. Fifty microliters were taken from the first well and added to the second well for a 1:1 serial dilution and continued for the 24 wells. […] Plates were covered with adhesive seals and left to incubate overnight at 4°C before FP measurements the next day. Anisotropy was measured using the Tecan Safire2 plate reader using a 10-nm bandwidth and setting the excitation and emission wavelengths to 635 and 670 nm, respectively. The G-factor (G) was also determined empirically as 1.094 for the instrument and included in all the anisotropy calculations.
(§3) For the indirect binding assays, r was calculated in the same manner as the direct binding assays. […] The control was subtracted from r to yield r′. Data were fit to a sigmoidal interpolation model on GraphPad Prism 9, and an IC50 was generated for each unlabeled peptide or protein measured.

Series [9] deals with T2, LptAm (Escherichia coli, UniProt P0ADV1).
T2 construct: His6-GB1 (N, cleaved yes); made in house; host or cells: E. coli BL21 (DE3)
In words: biochemical. Format: binding, E. coli. The procedure:
as §2, §3

Series [10] relates to K. pneumoniae NCTC 13443 (NDM-1) (parent / WT). The series is described as follows: microbe, parasite or virus in culture. On the procedure:
as §1

The subject of series [11] is K. pneumoniae NCTC 13443 (NDM-1) LptA Q62L mutant. The series is described as follows: microbe, parasite or virus in culture. The procedure: as §1
Setting [12] is: CLSI method, clone harboring LptA Q62L.

T1 sequence (P0ADV1 28-159 Q62L): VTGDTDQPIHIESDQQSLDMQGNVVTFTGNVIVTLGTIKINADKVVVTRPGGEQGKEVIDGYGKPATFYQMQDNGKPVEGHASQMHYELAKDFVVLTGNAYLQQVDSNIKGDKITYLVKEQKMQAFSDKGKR
T2 sequence (P0ADV1 28-159): as the sequence (P0ADV1 28-159 Q62L) above, with L35Q counted along it

Consider `CC[C@@H](C)[C@@H](NC(=O)[C@H]1C[C@H](O)CN1C(=O)[C@H](N)C(C)C)C(=O)N[C@@H](C(=O)N[C@H](Cc1ccc(O)cc1)C(=O)N[C@H]1C(=O)N[C@H](CC(N)=O)C(=O)N[C@H](CCCNC(=N)N)C(=O)N[C@H](CCN)C(=O)N[C@H]([C@H](C)O)C(=O)N[C@@H](CCN)C(=O)N[C@H](CCCCN)C(=O)N[C@@H](C(=O)N[C@H](CCN)C(=O)N[C@H](CCCNC(=N)N)C(=O)N[C@H](Cc2ccc(O)cc2)C(=O)O)CSSC1(C)C)[C@H](C)O` [6-enant.] (H-[dV][dHyp][dI][dT][dY][dPen][dN][dR][dDab][dT][Dab][dK][dC][dDab][dR][dY]-OH; disulfide 6-13), for which the “MIC K. pneumoniae 968733 (CST-R) Parent” value in series [1] (CLSI method, colistin-resistant strain) is recorded as above 8 micrograms per milliliter. Moreover, in series [2] (setting [12]), the “MIC K. pneumoniae ATCC 43816 Q62L mutant” value is above 8 micrograms per milliliter. For the same compound, the “MIC K. pneumoniae ATCC 43816 Parent” value in series [3] is given as above 8 micrograms per milliliter. In series [4], the “MIC E. coli ATCC 25922 Parent” value was above 8 micrograms per milliliter. Also, the “MIC E. coli ATCC 25922 Q62L mutant” value in [5] is given as above 8 micrograms per milliliter.

As for `CC[C@H](C)[C@H](NC(=O)[C@@H](NC(=O)[C@@H]1CCCN1C(=O)[C@@H](NC(=O)[C@@H]1CCCN1C(=O)[C@H](CCCCN)NC(=O)[C@@H](N)CCCCN)C(C)C)[C@@H](C)CC)C(=O)N[C@@H](Cc1ccc(O)cc1)C(=O)N[C@@H]1C(=O)N[C@@H](CC(N)=O)C(=O)N[C@@H](CCCNC(=N)N)C(=O)N[C@@H](CCN)C(=O)N[C@@H]([C@@H](C)O)C(=O)N[C@H](CCN)C(=O)N[C@@H](CCCCN)C(=O)N[C@H](C(=O)N[C@@H](CCN)C(=O)N[C@@H](CCCNC(=N)N)C(=O)N[C@@H](Cc2ccc(O)cc2)C(=O)O)CSSC1(C)C` [Compound 2] (H-KKPVPIIY[Pen]NR[Dab]T[dDab]KC[Dab]RY-OH; disulfide 9-16), the “Haemolysis % at 0.2 g/L” value in series [6] turned out to be 0%. In series [7], 60000 nM corresponded to half-maximal inhibition (IC50 at 48 h). In addition, the IC50 (in general, the concentration that gives 50% inhibition) in series [8] is 19.3 ± 6.3 nM; in series [9], 12.6 ± 0.7 nM. The Ki (commonly the dissociation constant of the complex between target and ligand, obtained from inhibition or displacement) in [8] came out at 13.1 ± 4.2 nM; in series [9], 2.1 ± 0.1 nM. Further, in series [10] (CLSI method, parent strain), the “MIC K. pneumoniae NCTC 13443 (NDM-1) Parent” value is 0.5 micrograms per milliliter. For the same compound, in series [3], the “MIC K. pneumoniae ATCC 43816 Parent” value amounted to 0.125 micrograms per milliliter. Besides, in series [11] (setting [12]), the “MIC K. pneumoniae NCTC 13443 (NDM-1) Q62L mutant” value is above 8 micrograms per milliliter. In addition, the “MIC E. coli ATCC 25922 Parent” value in [4] came out at 0.031 micrograms per milliliter. Moreover, the “MIC E. coli ATCC 25922 Q62L mutant” value in [5] was 2 micrograms per milliliter.

On to `CNC(C)C1CCC(N)C(OC2C(N)CC(N)C(OC3OCC(C)(O)C(NC)C3O)C2O)O1` (centres unmarked) [Gentamicin, reference compound], for which the MIC in series [1] (Klebsiella pneumoniae, read-out: MIC K. pneumoniae 968733 (CST-R) Parent) is 0.5 µg/mL (≈ 1.05 µM); in series [2] (Klebsiella pneumoniae, ATCC43816, read-out: MIC K. pneumoniae ATCC 43816 Q62L mutant), 0.5 µg/mL (≈ 1.05 µM); in series [10] (Klebsiella pneumoniae, NCTC13443, read-out: MIC K. pneumoniae NCTC 13443 (NDM-1) Parent), above 8 µg/mL; in series [3] (Klebsiella pneumoniae, ATCC43816, read-out: MIC K. pneumoniae ATCC 43816 Parent), 0.5 µg/mL (≈ 1.05 µM); in series [11] (Klebsiella pneumoniae, NCTC13443, read-out: MIC K. pneumoniae NCTC 13443 (NDM-1) Q62L mutant), above 8 µg/mL; in [4] (Escherichia coli, ATCC25922, read-out: MIC E. coli ATCC 25922 Parent), 0.5 µg/mL (≈ 1.05 µM). Further, the MIC in series [5] (Escherichia coli, ATCC25922, read-out: MIC E. coli ATCC 25922 Q62L mutant) was 1 µg/mL (≈ 2.09 µM).
